Source: patent US7741368B2, “Approach to antimicrobial host defense with molecular shields with EPA and DHA analogs” (The Brigham and Women's Hospital, Inc., priority 2001, dated 2010)

Test system: BPI
Settings: confluent Caco2 intestinal epithelial monolayers, 1 μM, 24 hr, β actin internal standard (FIG. 5)

## CC[C@@H](O)/C=C/C=C\C[C@@H](O)/C=C/C=C/C=C\[C@@H](O)CCCC(=O)O [5S,12R,18R-tri-HEPE]
  fold induction of BPI mRNA: BPI induction
